This assay deals with T1, Tyrosine-protein phosphatase non-receptor type 11 (Homo sapiens, UniProt Q06124).
T1 sequence (Q06124 whole entry): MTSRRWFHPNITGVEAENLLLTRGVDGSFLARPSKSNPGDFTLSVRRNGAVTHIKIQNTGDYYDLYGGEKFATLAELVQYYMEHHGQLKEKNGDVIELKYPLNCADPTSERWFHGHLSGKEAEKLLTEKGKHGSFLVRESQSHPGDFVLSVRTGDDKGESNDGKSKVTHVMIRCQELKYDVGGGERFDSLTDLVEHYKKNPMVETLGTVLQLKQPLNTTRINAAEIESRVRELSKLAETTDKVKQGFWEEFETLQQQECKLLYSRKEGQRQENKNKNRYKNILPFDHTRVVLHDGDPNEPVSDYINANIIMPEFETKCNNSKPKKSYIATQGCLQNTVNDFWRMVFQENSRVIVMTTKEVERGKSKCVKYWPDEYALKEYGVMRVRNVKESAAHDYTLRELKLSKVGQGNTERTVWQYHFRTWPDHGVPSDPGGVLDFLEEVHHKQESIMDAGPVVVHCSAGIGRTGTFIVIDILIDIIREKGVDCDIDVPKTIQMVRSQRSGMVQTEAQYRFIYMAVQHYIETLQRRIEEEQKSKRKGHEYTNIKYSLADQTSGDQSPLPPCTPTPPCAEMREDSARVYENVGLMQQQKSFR
Briefly: SHP2 Phosphatase Assay: IC50 values were determined at room temperature in 384-well black polystyrene plate, using a final reaction volume of 15 μl and the following assay buffer conditions: 60 mM Hepes (pH=7.2), 75 mM NaCl, 75 mM KCl, and 1 mM EDTA, 0.05% P-20, 5 mM dithiothreitol (DTT). Full length SHP2 enzyme (diluted to 0.1 nM in reaction buffer) were co-incubated with 1 uM IRS-1 peptide and 0.01 nM to 10 μM compounds of the disclosure for 60 min. The surrogate substrate DiFMUP (5 μL, […]) was added, and incubated at rt for 60 min. The reaction was then quenched by the addition of 5 μL of a 40 μM solution of bpV(Phen). The fluorescence signal was monitored using a microplate reader (Envision, Perkin-Elmer) using excitation and emission wavelengths of 360 nm and 450 nm, respectively. The inhibitor dose-response curves were analyzed using normalized IC50 regression curve fitting with control-based normalization.

As usually defined, the IC50 is the concentration at which inhibition is half-maximal. Turning to `CC1(CN)CCN(c2ncc(Sc3cccc(NC(=O)c4c(O)nc5cnccn5c4=O)c3Cl)[nH]c2=O)CC1`, the IC50 was below 50 nM.
